Laboratory results published in patent US20030068615A1, “Polypeptides that bind HIV gp120 and related nucleic acids, antibodies, compositions, and methods of use” (priority 1999, published 2003).
Several values for one entry are separate records, joined by “and”; a condition that tells them apart may be missing. Equal values may be shown once. Read-outs that look alike come from different tables or passages of the source.

Target: HIV-1LAI envelope gp120 (Human immunodeficiency virus type 1 group M subtype B, UniProt P03377)
Assay type: binding
Conditions: for Counts per 20′ Average-background: CCR5 18-mer scan, radiolabeled HIV-1LAI gp120; for number of radioactive decays (counts) counted: human CD4 21-mer scan, empty control 2075; for Binding Results For Window Length (counts bound-background), 9 / Binding Results For Window Length (counts bound-background), 12 / Binding Results For Window Length (counts bound-background), 15 / Binding Results For Window Length (counts bound-background), 18: STRL33 amino terminus; for Binding Results For Window Length (counts bound-background), 9: 9-mer starting at the first residue of the printed sequence; for Binding Results For Window Length (counts bound-background), 12: 12-mer starting at the first residue of the printed sequence; for Binding Results For Window Length (counts bound-background), 15: 15-mer starting at the first residue of the printed sequence; for Binding Results For Window Length (counts bound-background), 18: 18-mer starting at the first residue of the printed sequence
[1] = Panel A, 21-mers of CD4, empty control 515 and 617
[2] = STRL33 18-mer scan, background subtracted, first of two count columns
[3] = STRL33 18-mer scan, background subtracted, second of two count columns
[4] = Panel D, 9-mers and 12-mers of CD4, empty control […]
[5] = Panel B, 15-mers and 18-mers of CD4, empty control 575
[6] = CXCR4 18-mer scan, background subtracted, empty control 0
[7] = CXCR4 18-mer scan, empty control 412
[8] = Panel F, sequential alanine replacements of CD4 polypeptides, duplicate series, empty control 569
[9] = Panel C, 15-mers and 18-mers of CD4, empty control 556
[10] = Panel E, 9-mers and 12-mers of CD4, empty control 571

## IFTIMIVYFLFWAPYNIV [CCR5 segment 237-]
Background subtracted
  Counts per 20′ Average-background: 121 counts per 20′

## SIVYKKEGEQVEFSFPLAFTV
[1]
  COUNTS of radiolabeled gp120 retained: 8165 counts

## KATKAYNQQAKRMTWGKV
[2]
  radioactive counts recorded in twenty minutes: 701.5 counts
[3]
  radioactive counts recorded in twenty minutes: 568.5 counts

## DQGNFPLII
[4]
  COUNTS of radiolabeled gp120 retained: 662 counts

## SVYTRSTGEQEISVGL [CCR5 segment 337-]
Background subtracted
  Counts per 20′ Average-background: 47 counts per 20′

## VEDQKEEVQLLV
[4]
  COUNTS of radiolabeled gp120 retained: 657 counts

## PLIIKNLKIEDSDTYICE
[5]
  COUNTS of radiolabeled gp120 retained: 624 counts

## TVVLATQMTLGFFLPLLT [STRL33 segment 189-206]
[2]
  radioactive counts recorded in twenty minutes: 2327.5 counts
[3]
  radioactive counts recorded in twenty minutes: 2389.5 counts

## LLVFGLTAN
[4]
  COUNTS of radiolabeled gp120 retained: 576 counts

## GEQVEFSAPLAFTVE
Panel G, alanine replacements and serial truncations (Z) of CD4 polypeptides, empty control 580
  COUNTS of radiolabeled gp120 retained: 7767 counts and 7378 counts

## FGLTANSDT
[4]
  COUNTS of radiolabeled gp120 retained: 563 counts

## PFRELLLVLQLALLPAATQGK [human CD4, printed 16-26]
  number of radioactive decays (counts) counted: 4356 counts

## LFFLLTVPFWAHYAAAQW [CCR5 segment 77-94]
Background subtracted
  Counts per 20′ Average-background: 173 counts per 20′

## MDYQVASPIYDINYYTSE
CCR5 (1-18) alanine variants, mean of two syntheses and binding experiments ± average deviation, wild-type = 100%
  Relative % of Control: 124 ± 3%

## FREENANFNKIFLPTIYS [CXCR4 segment 29-46]
[6]
  radioactive counts recorded in twenty minutes: 51 counts
[7]
  radioactive counts recorded in twenty minutes: 463 counts

## SSFNDSSQEEHQAFLQFS [STRL33 segment 13-30]
[2]
  radioactive counts recorded in twenty minutes: 2689.5 counts
[3]
  radioactive counts recorded in twenty minutes: 2757.5 counts
Background subtracted
  Binding Results For Window Length (counts bound-background), 9: 243 counts
  Binding Results For Window Length (counts bound-background), 12: 277 counts
  Binding Results For Window Length (counts bound-background), 15: 902 counts
  Binding Results For Window Length (counts bound-background), 18: 6038 counts

## LPGIIFTRSQKEGLHYTC
Background subtracted
  Counts per 20′ Average-background: 118 counts per 20′

## VSSPIYDINYYTSEPCQK [CCR5 segment 5-22]
Background subtracted
  Counts per 20′ Average-background: 383 counts per 20′

## THLLQGQSLTLTAES
[8]
  COUNTS of radiolabeled gp120 retained: 862 counts and 797 counts

## LKSMTDIYLLNLAISDLF [CCR5 segment 61-78]
Background subtracted
  Counts per 20′ Average-background: 210 counts per 20′

## TYICEVEDQ
[4]
  COUNTS of radiolabeled gp120 retained: 805 counts

## YQKKLRSMTDKYRLHLSV [CXCR4 segment 65-82]
[6]
  radioactive counts recorded in twenty minutes: 99 counts
[7]
  radioactive counts recorded in twenty minutes: 511 counts

## LQNQKKVEFKIDIVVLAF
[9]
  COUNTS of radiolabeled gp120 retained: 938 counts

## IIISKLSHSKGHQKRKAL
[6]
  radioactive counts recorded in twenty minutes: 157 counts
[7]
  radioactive counts recorded in twenty minutes: 569 counts

## GLNNCSSSNRLDQAMQVT [CCR5 segment 265-]
Background subtracted
  Counts per 20′ Average-background: −31 counts per 20′

## GNFPLIIKNLKIEDS
[5]
  COUNTS of radiolabeled gp120 retained: 624 counts

## FPLIIKNLK
[4]
  COUNTS of radiolabeled gp120 retained: 601 counts

## THLLQAQSLTLTLES
[8]
  COUNTS of radiolabeled gp120 retained: 8471 counts and 6393 counts

## HLLQGQSLTLTL
[4]
  COUNTS of radiolabeled gp120 retained: 701 counts

## CYSGILKTLLRCRNEKKR
Background subtracted
  Counts per 20′ Average-background: 70 counts per 20′

## VEFKIDIVV
[10]
  COUNTS of radiolabeled gp120 retained: 548 counts

## VMRATQLQKNLTCEVWGPTSP [human CD4 316-336]
  number of radioactive decays (counts) counted: 2144 counts

## VLQNQKKVEFKI
[10]
  COUNTS of radiolabeled gp120 retained: 503 counts

## ASSIVYKKEGEQVEFSFPLAF
[1]
  COUNTS of radiolabeled gp120 retained: 25146 counts

## KKVEFKIDIVVL
[10]
  COUNTS of radiolabeled gp120 retained: 597 counts

## EAVQLLVFGLTANSD
[8]
  COUNTS of radiolabeled gp120 retained: 14220 counts and 13213 counts

## IKNLKIEDSDTYICE
[5]
  COUNTS of radiolabeled gp120 retained: 568 counts

## QVEFSFPLAFTVEKLTGS
[9]
  COUNTS of radiolabeled gp120 retained: 736 counts

## AEHDYHEDYGFSSFNDSS
Background subtracted
  Binding Results For Window Length (counts bound-background), 9: 354 counts
  Binding Results For Window Length (counts bound-background), 12: 697 counts
  Binding Results For Window Length (counts bound-background), 15: 1095 counts
  Binding Results For Window Length (counts bound-background), 18: 1014 counts

## EFSFPLAFTVEKLTG
[9]
  COUNTS of radiolabeled gp120 retained: 920 counts

## EVEDQKEEVQLLVFG
[5]
  COUNTS of radiolabeled gp120 retained: 2805 counts

## YAFVGEKFRNYLLVFFQK [CCR5 segment 297-]
Background subtracted
  Counts per 20′ Average-background: 596 counts per 20′

## FNLDKLICGYHDEAISTV
[2]
  radioactive counts recorded in twenty minutes: 1072.5 counts
[3]
  radioactive counts recorded in twenty minutes: 1078.5 counts

## EFSFPLAFT
[10]
  COUNTS of radiolabeled gp120 retained: 658 counts

## KNLKIEDSDTYI
[4]
  COUNTS of radiolabeled gp120 retained: 523 counts

## QVEFSFPLAFTVEKLTGSGEL
[1]
  COUNTS of radiolabeled gp120 retained: 741 counts

## SEPCQKINVKQIAARLLP [CCR5 segment 17-34]
Background subtracted
  Counts per 20′ Average-background: −44 counts per 20′

## GMWQCLLSDSGQVLLESNIKV
  number of radioactive decays (counts) counted: 4185 counts

## FSFPLAFTV
[10]
  COUNTS of radiolabeled gp120 retained: 472 counts
